Reference: patent US20240398757A1 (COCRYSTAL PHARMA, INC., priority 2022, published 2024)

What follows are compounds tested against T1, SARS2 protease (Severe acute respiratory syndrome coronavirus 2, UniProt P0DTD1) (assay: SARS-CoV-2 protease inhibition assay (SARS2 FRET protease assay)). Details: IC50 (μM), SARS2 protease 30 nM, peptide substrate 1.3 μM, 120 minutes at 37° C., compounds 20 μM to 0.075 nM.
T1 construct: SARS2 protease was added to a final concentration of 30 nM
Type: biochemical

| Structure (SMILES) | IC50 |
| --- | --- |
| CCCC[C@H](NC(=O)O[C@@H](c1ccccc1)C(F)(F)c1cccc(Cl)c1)C(=O)N[C@H](C=O)C[C@@H]1CCNC1=O [Compound A107, (S)-2-(3-chlorophenyl)-2,2-difluoro-1-phenylethyl ((S)-1-oxo-1-(((S)-1-oxo-3-((S)-2-oxopyrrolidin-3-yl)propan-2-yl)amino)hexan-2-yl)carbamate] | 0.001 µM |
| CCCC[C@H](NC(=O)OC(c1ccccc1)C(F)(F)c1cccc(Cl)c1)C(=O)N[C@@H](C[C@@H]1CCNC1=O)C(=O)C(=O)NCCN(CC)CC (stereo partly drawn) [Compound A271] | 0.936 µM |
| O=C(N[C@@H](CC1CCCCC1)C(=O)N[C@@H](C[C@@H]1CCNC1=O)C(O)S(=O)(=O)O)O[C@H](c1ccccc1)C(F)(F)c1cccc(Cl)c1 (stereo partly drawn) [Compound A135] | 0.0022 µM |
| CCCC[C@H](NC(=O)OC(c1ccccc1)C(C)(C)c1cccc(F)c1)C(=O)N[C@H](C=O)C[C@@H]1CCNC1=O (stereo partly drawn) [Compound A37] | 0.91 µM |
| CCCC[C@H](NC(=O)O[C@@H](c1ccccc1)C(F)(F)c1cccc(Cl)c1)C(=O)N[C@@H](C[C@@H]1CCCNC1=O)C(=O)C(=O)NC1CC1 [Compound A195] | 0.211 µM |
| CCCCC[C@H](NC(=O)O[C@@H](c1ccccc1)C(F)(F)c1cccc(Cl)c1)C(=O)N[C@@H](C[C@@H]1CCNC1=O)C(=O)C(=O)NC1CC1 [Compound A33] | 0.3 µM |
| CC(C)C[C@H](NC(=O)O[C@H](c1ccc(F)cc1)C(F)(F)c1cccc(Cl)c1)C(=O)N[C@@H](C[C@@H]1CCNC1=O)C(=O)C(=O)NC1CC1 [Compound A9] | 0.0001 µM |
| CCC[C@H](NC(=O)OC(c1ccccc1)C(F)(F)c1cccc(Cl)c1)C(=O)N[C@@H](C[C@@H]1CCNC1=O)C(=O)C(=O)NC1CC1 (stereo partly drawn) [Compound A109] | 0.17 µM |
| CCCC[C@H](NC(=O)OC(c1cccc(F)c1)C1(c2cccc(F)c2)CC1)C(=O)N[C@@H](C[C@@H]1CCNC1=O)C(=O)C(=O)NC1CC1 (stereo partly drawn) [Compound A104] | 0.309 µM |
| CCCC(=O)OC([C@H](C[C@@H]1CCNC1=O)NC(=O)[C@H](CC1CCCCC1)NC(=O)O[C@H](c1ccccc1)C(F)(F)c1cccc(Cl)c1)S(=O)(=O)O (stereo partly drawn) [Compound A186] | 0.319 µM |
| CCCC[C@H](NC(=O)O[C@H](c1ccccc1)C(F)(F)c1cccc(Cl)c1)C(=O)N[C@H](C=O)C[C@@H]1CCNC1=O [Compound A110, (R)-2-(3-chlorophenyl)-2,2-difluoro-1-phenylethyl ((S)-1-oxo-1-(((S)-1-oxo-3-((S)-2-oxopyrrolidin-3-yl)propan-2-yl)amino)hexan-2-yl)carbamate] | 0.0002 µM |
| O=C(N[C@@H](CC1CC1)C(=O)N[C@@H](C[C@@H]1CCNC1=O)C(=O)C(=O)NC1CC1)OC(c1ccccc1)C(F)(F)c1cccc(Cl)c1 (stereo partly drawn) [Compound A94] | 0.0123 µM |
| CCCC[C@H](NC(=O)OC(c1ccccc1)C(F)(F)c1cccc(Cl)c1)C(=O)NC(C)(C=O)CC1CCNC1=O (stereo partly drawn) [Compound A192] | 0.978 µM |
| CCC[C@H](NC(=O)OC(c1ccccc1)C(F)(F)c1cccc(F)c1)C(=O)N[C@H](C=O)C[C@@H]1CCNC1=O (stereo partly drawn) [Compound A89] | 0.02 µM |
| CCNC(=O)C(=O)[C@H](C[C@@H]1CCNC1=O)NC(=O)[C@H](Cc1cccc(Cl)c1)NC(=O)OC(c1ccccc1)C(F)(F)c1cccc(Cl)c1 (stereo partly drawn) [Compound A287] | 1.06 µM |
| O=C(N[C@@H](CC1CCCCC1)C(=O)N[C@@H](C[C@@H]1CCNC1=O)C(O)S(=O)(=O)O)O[C@H](c1ccccc1)C(F)(F)c1cccc(F)c1 (stereo partly drawn) [Compound A233, sodium (2S)-2-((S)-3-cyclohexyl-2-((((R)-2,2-difluoro-2-(3-fluorophenyl)-1-phenylethoxy)carbonyl)amino)propanamido)-1-hydroxy-3-((S)-2-oxopyrrolidin-3-yl)propane-1-sulfonate] | 0.025 µM |
| O=C(N[C@@H](CC1CCCCC1)C(=O)N[C@@H](C[C@@H]1CCNC1=O)C(=O)C(=O)NC1CC1)OC(c1ccccc1)C(F)(F)c1cccc(F)c1 (stereo partly drawn) [Compound A74, 2,2-difluoro-2-(3-fluorophenyl)-1-phenylethyl ((S)-3-cyclohexyl-1-(((S)-4-(cyclopropylamino)-3,4-dioxo-1-((S)-2-oxopyrrolidin-3-yl)butan-2-yl)amino)-1-oxopropan-2-yl)carbamate] | 0.186 µM |

| Structure (SMILES) | IC50 |
| --- | --- |
| O=C(N[C@@H](CC1CCCCC1)C(=O)N[C@@H](C[C@@H]1CCNC1=O)C(=O)C(=O)NC1CC1)O[C@H](c1ccccc1)C(F)(F)c1cccc(F)c1 [Compound A237] | 0.003 µM |
| CC(C)C[C@H](NC(=O)OC(c1ccccc1)C1(c2cccc(Cl)c2)CCCCC1)C(=O)N[C@@H](C[C@@H]1CCNC1=O)C(=O)C(=O)NC1CC1 (stereo partly drawn) [Compound A3] | 0.52 µM |
| CCCC[C@H](NC(=O)OC(c1cccnc1)C(F)(F)c1cccc(Cl)c1)C(=O)N[C@@H](C[C@@H]1CCNC1=O)C(=O)C(=O)NC1CC1 (stereo partly drawn) [Compound A252] | 0.002 µM |
| NC(=O)C(=O)[C@H](C[C@@H]1CCNC1=O)NC(=O)[C@H](CC1CCCCC1)NC(=O)OC(c1ccccc1)C(F)(F)c1cccc(Cl)c1 (stereo partly drawn) [Compound A204] | 0.001 µM |
| CCC[C@H](NC(=O)O[C@H](c1ccccc1)C(F)(F)c1cccc(F)c1)C(=O)N[C@H](C=O)C[C@@H]1CCNC1=O [Compound A172] | 0.0185 µM |
| CCCC[C@H](NC(=O)O[C@@H](c1cccc(F)c1)C(F)(F)c1cccc(F)c1)C(=O)N[C@H](C=O)C[C@@H]1CCNC1=O [Compound A217] | 0.01 µM |
| CCC(CC)(c1cccc(Cl)c1)C(OC(=O)N[C@@H](CC(C)C)C(=O)N[C@@H](C[C@@H]1CCNC1=O)C(=O)C(=O)NC1CC1)c1ccccc1 (stereo partly drawn) [Compound A6] | 0.24 µM |
| CCCC[C@H](NC(=O)O[C@@H](c1ccccc1)C(C)(C)c1cccc(Cl)c1)C(=O)N[C@H](C=O)C[C@H]1CCNC1=O [Compound A122, (S)-2-(3-Chlorophenyl)-2-methyl-1-phenylpropyl ((S)-1-oxo-1-(((S)-1-oxo-3-((R)-2-oxopyrrolidin-3-yl)propan-2-yl)amino)hexan-2-yl)carbamate] | < 0.0001 µM |
| CC(C)C[C@H](NC(=O)OC(c1ccc(Cl)cc1)C1(c2cccc(Cl)c2)CCCCC1)C(=O)N[C@H](C=O)C[C@@H]1CCNC1=O (stereo partly drawn) [Compound A49] | 0.38 µM |
| O=C(N[C@@H](CCC(F)F)C(=O)N[C@@H](C[C@@H]1CCNC1=O)C(=O)C(=O)NC1CC1)OC(c1ccccc1)C(F)(F)c1cccc(Cl)c1 (stereo partly drawn) [Compound A179, 2-(3-chlorophenyl)-2,2-difluoro-1-phenylethyl ((S)-1-(((S)-4-(cyclopropylamino)-3,4-dioxo-1-((S)-2-oxopyrrolidin-3-yl)butan-2-yl)amino)-5,5-difluoro-1-oxopentan-2-yl)carbamate] | 0.006 µM |
| CC(C)C[C@H](NC(=O)OC(c1ccc(Cl)cc1)C1(c2cccc(Cl)c2)CCN(C(=O)OC(C)(C)C)CC1)C(=O)N[C@H](C=O)C[C@@H]1CCNC1=O (stereo partly drawn) [Compound A85] | 0.46 µM |
| CCCC[C@H](NC(=O)OC(c1ccccc1)C(F)(F)c1cccc(Cl)c1)C(=O)N[C@@H](C[C@@H]1CCNC1=O)C(=O)C(=O)NCCO (stereo partly drawn) [Compound A231, 2-(3-chlorophenyl)-2,2-difluoro-1-phenylethyl ((S)-1-(((S)-4-((2-hydroxyethyl)amino)-3,4-dioxo-1-((S)-2-oxopyrrolidin-3-yl)butan-2-yl)amino)-1-oxohexan-2-yl)carbamate] | 0.089 µM |
| O=C(N[C@@H](CC1CCCCC1)C(=O)N[C@@H](C[C@@H]1CCNC1=O)C(=O)C(=O)NC1CC1)OC(c1ccccc1)C(F)(F)c1cccc(Cl)c1 (stereo partly drawn) [Compound A21] | 0.06 µM |
| CCCC[C@H](NC(=O)O[C@H](c1ccc(F)cc1)C(F)(F)c1cccc(Cl)c1)C(=O)N[C@@H](C[C@@H]1CCNC1=O)C(=O)C(=O)NC1CC1 [Compound A200] | 0.0004 µM |
| O=C[C@H](C[C@@H]1CCNC1=O)NC(=O)[C@H](CC1CCCCC1)NC(=O)OC(c1ccccc1)C(F)(F)c1cccc(F)c1 (stereo partly drawn) [Compound A67, 2,2-difluoro-2-(3-fluorophenyl)-1-phenylethyl ((S)-3-cyclohexyl-1-oxo-1-(((S)-1-oxo-3-((S)-2-oxopyrrolidin-3-yl)propan-2-yl)amino)propan-2-yl)carbamate] | 0.002 µM |
| CCC(=O)OC([C@H](C[C@@H]1CCNC1=O)NC(=O)[C@H](CC1CCCCC1)NC(=O)O[C@@H](c1ccccc1)C(F)(F)c1cccc(Cl)c1)S(=O)(=O)O (stereo partly drawn) [Compound A211] | 0.504 µM |
